Data reported in patent EP4624465A1, “COMPOUND SERVING AS DDR1 KINASE INHIBITOR, AND MEDICINE” (Nippon Shinyaku Co., Ltd., priority 2022, dated 2024).
Counter-ions that a name gives are not always drawn.

Target: DDR1 kinase (Homo sapiens, UniProt Q08345)
Assay: Evaluation of DDR1 kinase inhibition (LANCE Ultra TR-FRET kinase assay)
Format: biochemical
Design: purchased Carna Biosciences 08-113
Settings: DDR1 protein 0.5 nM, LANCE Ultra ULight-poly GAT substrate, 2 hours at room temperature, duplicate; read-out: DDR-1 IC50

Sequence of DDR1 kinase (Q08345 19-876 isoform Q08345-2 limits assumed): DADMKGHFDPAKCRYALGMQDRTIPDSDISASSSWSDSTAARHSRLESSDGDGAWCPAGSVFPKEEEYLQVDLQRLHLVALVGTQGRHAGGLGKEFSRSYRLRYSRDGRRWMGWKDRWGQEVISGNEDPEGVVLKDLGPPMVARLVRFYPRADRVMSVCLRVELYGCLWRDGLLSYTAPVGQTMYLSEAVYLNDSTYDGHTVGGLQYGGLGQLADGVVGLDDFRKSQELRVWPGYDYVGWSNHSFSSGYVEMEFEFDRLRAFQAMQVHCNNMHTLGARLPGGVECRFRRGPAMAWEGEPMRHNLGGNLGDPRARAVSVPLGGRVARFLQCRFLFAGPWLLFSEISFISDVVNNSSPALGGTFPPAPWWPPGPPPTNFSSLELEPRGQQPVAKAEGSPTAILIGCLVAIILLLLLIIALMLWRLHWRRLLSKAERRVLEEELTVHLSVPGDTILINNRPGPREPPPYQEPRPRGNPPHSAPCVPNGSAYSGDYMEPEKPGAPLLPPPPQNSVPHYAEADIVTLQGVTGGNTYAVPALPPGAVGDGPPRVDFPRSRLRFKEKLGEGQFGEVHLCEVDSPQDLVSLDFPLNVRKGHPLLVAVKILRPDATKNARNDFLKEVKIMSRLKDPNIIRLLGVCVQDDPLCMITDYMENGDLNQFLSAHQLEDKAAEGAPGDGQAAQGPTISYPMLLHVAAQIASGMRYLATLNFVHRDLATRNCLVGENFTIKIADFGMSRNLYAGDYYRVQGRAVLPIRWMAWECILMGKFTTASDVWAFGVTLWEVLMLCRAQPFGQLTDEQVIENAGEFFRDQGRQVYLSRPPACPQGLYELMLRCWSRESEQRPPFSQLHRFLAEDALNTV

Row | SMILES | IC50 [nM]
1 | O=C(c1cn[nH]c1)N1CC(c2nn(CC(=O)N3CCC[C@H]3C(F)(F)F)c3cc(F)cc(F)c23)C1 [Compound E-164, 2-(4,6-difluoro-3-[1-(1H-pyrazole-4-carbonyl)azetidin-3-yl]-1H-indazol-1-yl}-1-[(28)-2-(trifluoromethyl)pyrrolidin-1-yl]ethan-1-one] | 200
2 | Nc1cc(C(=O)N2CC(c3nn(Cc4noc(-c5ccccc5F)n4)c4cncc(F)c34)C2)ccn1 [Compound E-160, 4-[3-(4-fluoro-1-{[5-(2-fluorophenyl)-1,2,4-oxadiazol-3-yl]methyl}-1H-pyrazolo[3,4-c]pyridin-3-yl)azetidine-1-carbonyl]pyridin-2-amine] | 140
3 | CC(C)(C)NC(=O)Cn1nc(C2CN(C(=O)c3cc(N)ncc3F)C2)c2ccccc21 [Compound E-199, 2-{3-[1-(2-amino-5-fluoropyridine-4-carbonyl)azetidin-3-yl]-1H-indazol-1-yl}-N-tert-butylacetamide] | 5.2
4 | Cc1ccc2c(c1)c(C1CN(C(=O)c3ccnc(N)n3)C1)nn2CC(=O)N1CCC[C@H]1C(F)(F)F [Compound E-292, 2-{3-[1-(2-aminopyrimidine-4-carbonyl)azetidin-3-yl]-5-methyl-1H-indazol-1-yl]-1-[(2S)-2-(trifluoromethyl)pyrrolidin-1-yl]ethan-1-one] | 2.3
5 | CN1CCN(C(=O)Cn2nc(C3CN(C(=O)c4cc(N)ncc4F)C3)c3ccccc32)CC1 [Compound E-260] | 240
6 | COc1ccc2c(c1)c(C1CN(C(=O)c3cc(N)ncc3F)C1)nn2CC(=O)N1CCC[C@H]1C(F)(F)F [Compound E-291, 2-(3-(1-(2-amino-5-fluoropyridine-4-carbonyl)azetidin-3-yl]-5-methoxy-1H-indazol-1-yl}·1-[(2S)-2-(trifluoromethyl)pyrrolidin-1-yl]ethan-1-one] | 2.6
7 | Nc1cc(C(=O)N2CCC(c3nn(CC(=O)N4CCC[C@H]4C(F)(F)F)c4ccccc34)CC2)c(F)cn1 [Compound E-49, 2-{3-[1-(2-amino-5-fluoropyridine-4-carbonyl)piperidin-4-yl]-1H-indazol-1-yl}-1-[(2S)-2-(trifluoromethyl)pyrrolidin-1-yl]ethan-1-one] | 9.9
8 | Nc1cc(C(=O)N2CC(c3nn(Cc4cn(CC5COC5)nn4)c4cccc(F)c34)C2)ccn1 [Compound E-38] | 190
9 | CN(CC(F)(F)F)C(=O)Cn1nc(C2(C)CN(C(=O)c3ccnc(N)c3)C2)c2ccccc21 [Compound E-273, 2-{3-[1-(2-aminopyridine-4-carbonyl)-3-methylazetidin-3-yl]-1H-indazol-1-yl}-N-methyl-N-(2,2,2-trifluoroethyl)acetamide] | 60
10 | Cc1cc2c(C3CN(C(=O)c4ccnc(N)c4)C3)nn(Cc3ccc(C(F)(F)F)cc3)c2cn1 [Compound E-168, 4-[3-(5-methyl-1-{[4-(trifluoromethyl)phenyl]methyl]-1H-pyrazolo[3,4-c]pyridin-3-yl)azetidine-1-carbonyl]pyridin-2-amine] | 64
11 | Nc1cc(C(=O)N2CC(c3nn(CC(=O)N4CCC[C@H]4C(F)(F)F)c4ccc(Cl)cc34)C2)ccn1 [Compound E-207, 2-{3-[1-(2-aminopyridine-4-carbonyl)azetidin-3-yl]-6-chloro-1H-indazol-1-yl}-1-[(28)-2-(trifluoromethyl)pyrrolidin-1-yl]ethan-1-one] | 1.6
12 | Nc1cc(C(=O)N2CC(c3nn(CC#CC4CC4)c4cc(F)cc(F)c34)C2)ccn1 [Compound E-156] | 12
13 | Nc1cc(C(=O)N2CC(c3nn(CC(=O)N4CCC[C@H]4COC(F)(F)F)c4cncc(F)c34)C2)c(F)cn1 [Compound E-58, 2-{3-[1-(2-amino-5-fluoropyridine-4-carbonyl)azetidin-3-yl]-4-fluoro-1H-pyrazolo(3,4-c]pyridin-1-yl}-1-[(2S)-2-[(trifluoromethoxy)methyl]pyrrolidin-1-yl]ethan-1-one di-p-toluenesulfonate] | 4.4
14 | CC1(C)COCCN1C(=O)Cn1nc(C2CN(C(=O)c3ccnc(N)c3F)C2)c2ccccc21 [Compound E-190, 2-{3-[1-(2-amino-3-fluoropyridine-4-carbonyl)azetidin-3-yl]-1H-indazol-1-yl}-1-(3,3-dimethylmorpholin-4-yl)ethan-1-one] | 7.5
15 | Nc1cc(C(=O)N2CC(c3nn(CC(=O)NCCOC(F)(F)F)c4ccccc34)C2)ccn1 [Compound E-227, 2-{3-[1-(2-aminopyridine-4-carbonyl)azetidin-3-yl)-1H-indazol-1-yl}-N-[2-(trifluoromethoxy)ethyl]acetamide] | 60
16 | Nc1cc(C(=O)N2CC(c3nn(CC(=O)N4CCO[C@@H](C(F)(F)F)C4)c4ccc(Cl)cc34)C2)ccn1 [Compound E-205, 2-{3-[1-(2-aminopyridine-4-carbonyl)azetidin-3-yl]-5-chloro-1H-indazol-1-yl}-1-[(2R)-2-(trifluoromethyl)morpholin-4-yl]ethan-1-one] | 1.6
17 | O=C(c1ccc2[nH]ncc2n1)N1CC(c2nn(CC(=O)N3CCC[C@H]3C(F)(F)F)c3cc(F)cc(F)c23)C1 [Compound E-141] | 5
18 | Nc1cc(C(=O)N2CC(c3nn(Cc4noc(C(F)(F)F)n4)c4cccc(F)c34)C2)ccn1 [Compound E-216, 4-[3-(4-fluoro-1-([5-(trifluoromethyl)-1,2,4-oxadiazol-3-yl]methyl)-1H-indazol-3-yl)azetidine-1-carbonyl]pyridin-2-amine] | 13
19 | CN(CC(F)(F)F)C(=O)Cn1nc(C2CN(C(=O)c3ccnc(N)n3)C2)c2ccc(F)cc21 [Compound E-284, 2-{3-[1-(2-aminopyrimidine-4-carbonyl)azetidin-3-yl]-6-fluoro-1H-indazol-1-yl}-N-methyl-N-(2,2,2-trifluoroethyl)acetamide] | 54
20 | Nc1cc(C(=O)N2CC(c3nn(CC(=O)N4CCC[C@H]4C(F)(F)F)c4ccccc34)C2)c(Cl)cn1 [Compound E-210, 2-{3-[1-(2-amino-5-chloropyridine-4-carbonyl)azetidin-3-yl]-1H-indazol-1-yl]-1-[(2S)-2-(trifluoromethyl)pyrrolidin-1-yl]ethan-1-one] | 3.5
21 | Nc1cc(C(=O)N2CC(c3nn(CC(=O)N4CCc5ccc(Br)cc54)c4cc(F)cc(F)c34)C2)ccn1 [Compound E-161] | 0.3

Continued by falling IC50, values first:

Row | IC50 [nM] | SMILES
22 | 220 | Nc1cc(C(=O)N2CC(c3nn(Cc4nc(-c5ccncc5F)no4)c4cncc(F)c34)C2)ccn1 [Compound E-170]
23 | 160 | CC1(C)CCc2c(c(C3CN(C(=O)c4ccnc(N)n4)C3)nn2CC(=O)N2CCC[C@H]2C(F)(F)F)C1 [Compound E-295, 2-{3-[1-(2-aminopyrimidine-4-carbonyl)azetidin-3-yl]-5,5-dimethyl-4,5,6,7-tetrahydro-1H-indazol-1-yl}-1-[(2S)-2-(trifluoromethyl)pyrrolidin-1-yl]ethan-1-one]
24 | 60 | Nc1cc(C(=O)N2CC(c3nn(CC(=O)N4CCC[C@H]4C(F)(F)F)c4cccnc34)C2)ccn1 [Compound E-120]
25 | 56 | Nc1cc(C(=O)N2CC(c3nn(Cc4noc(-c5cccc(C(F)(F)F)c5)n4)c4cccc(F)c34)C2)ccn1 [Compound E-117, 4-{3-[4-fluoro-1-({5-[3-(trifluoromethyl)phenyl])-1,2,4-oxadiazol-3-ylimethyl)-1H-indazol-3-yl]azetidine-1-carbonyl}pyridin-2-amine]
26 | 43 | Nc1cc(C(=O)N2CC(c3nn(Cc4cn(CC(F)(F)F)nn4)c4cccc(F)c34)C2)ccn1 [Compound E-52, 4-[3-(1-{[1-(2,2,2-trifluoroethyl)-1H-1,2,3-triazol-4-yl]methyl]-4-fluoro-1H-indazol-3-yl)azetidine-1-carbonyl]pyridin-2-amine hydrochloride]
27 | 30 | CO[C@@H]1CCN(C(=O)Cn2nc(C3CN(C(=O)c4cc(N)ncc4F)C3)c3ccccc32)C1 [Compound E-231, 2-{3-[1-(2-amino-5-fluoropyridine-4-carbonyl)azetidin-3-yl]-1H-indazol-1-yl}-1-1(3R)-3-methoxypyrrolidin-1-yllethan-1-one]
28 | 26 | CN(CC(F)(F)F)C(=O)Cn1nc(C2CN(C(=O)c3ccnc(N)n3)C2)c2cc(F)ccc21 [Compound E-293, 2-{3-[1-(2-aminopyrimidine-4-carbonyl)azetidin-3-yl]-5-fluoro-1H-indazol-1-yl]-N-methyl-N-(2,2,2-trifluoroethyl)acetamide]
29 | 11 | Nc1cc(C(=O)N2CC(O)(c3nn(CC(=O)N4CCC[C@H]4C(F)(F)F)c4ccccc34)C2)c(F)cn1 [Compound E-281, 2-{3-[1-(2-amino-5-fluoropyridine-4-carbonyl)-3-hydroxyazetidin-3-yl]-1H-indazol-1-yl}-1-[(28)-2-(trifluoromethyl)pyrrolidin-1-yl]ethan-1-one]
30 | 11 | CC1(C)CCCN1C(=O)Cn1nc(C2CN(C(=O)c3ccnc(N)c3)C2)c2c(F)cc(F)cc21 [Compound E-127, 2-{3-[1-(2-aminopyridine-4-carbonyl)azetidin-3-yl]-4,6-difluoro-1H-indazol-1-yl}-1-(2,2-dimethylpyrrolidin-1-yl)ethan-1-one]
31 | 4.4 | Cc1nc(N)sc1C(=O)N1CCC(c2nn(CC(=O)N3CCC[C@H]3C(F)(F)F)c3cccc(F)c23)CC1 [Compound E-119, 2-{3-[1-(2-amino-4-methyl-1,3-thiazole-5-carbonyl)piperidin-4-yl]-4-fluoro-1H-indazol-1-yl}·1-[(2S)-2-(trifluoromethyl)pyrrolidin-1-yl]ethan-1-one]
32 | 2.1 | CC1(C)COCCN1C(=O)Cn1nc(C2CN(C(=O)c3cc(N)ncc3F)C2)c2c(F)cc(F)cc21 [Compound E-177, 2-{3-[1-(2-amino-5-fluoropyridine-4-carbonyl)azetidin-3-yl)-4,6-difluoro-1H-indazol-1-yl}-1-(3,3-dimethylmorpholin-4-yl)ethan-1-one]
33 | 2.1 | Nc1cc(C(=O)N2CC(c3nn(CC(=O)N4CCCC(C(F)(F)F)C4)c4ccccc34)C2)c(F)cn1 (stereo not drawn) [Compound E-259, 2-{3-[1-(2-amino-5-fluoropyridine-4-carbonyl)azetidin-3-yl}-1H-indazol-1-yl}-1-[3-(trifluoromethyl)piperidin-1-yl]ethan-1-one]
